Reference: patent US8163790B2, “Metronidazole cocrystals and imipramine cocrystals” (New Form Pharmaceuticals, Inc., priority 2005, dated 2012)
Each block holds one compound with its values, some of them ahead of it.

What was measured:
[1] = water at 23° C., 900 mL, 100 rpm
[2] = intrinsic dissolution, 900 mL, 100 rpm, 0.50 cm^2; media 34 mM aqueous NaCl, water at 37° C., water at ambient temperature (medium of the value not stated); relative to imipramine HCl
[3] = Intrinsic dissolution of metronidazole:gallic acid cocrystal (Woods apparatus, UV 318 nm); type: physicochemical; details: water at 37° C., 900 mL, 100 rpm, 0.50 cm^2, relative to metronidazole
Procedure: Samples of metronidazole and the metronidazole cocrystal were compressed at 1000 psi for approximately one minute. […] A dissolution medium of water was used at 37° C. […] Metronidazole and the metronidazole:gallic acid cocrystal solutions were analyzed with a Cary 50 UV-VIS single-beam spectrophotometer without dilution at room temperature in a 1.000 cm quartz cuvette. […] Wavelength calibration was performed using holmium oxide.

imipramine HCl dissolved from the cocrystal ([1]; at 300 minutes): less than 0.0063 mg/mL | dissolution rate compared with imipramine HCl (in words) ([1]; intrinsic dissolution, rate too slow to quantify accurately): much slower rate
Structure (SMILES): CN(C)CCCN1c2ccccc2CCc2ccccc21.Cl.O=C(O)c1ccc2ccccc2c1O

imipramine dissolved from imipramine HCl ([1]; in two minutes): 0.013 mg/mL
Structure (SMILES): CN(C)CCCN1c2ccccc2CCc2ccccc21.Cl [imipramine HCl, Imipramine hydrochloride, reference compound]

dissolution rate of the cocrystal as % of the rate of imipramine HCl [2]: about 58%
Structure (SMILES): CN(C)CCCN1c2ccccc2CCc2ccccc21.CN(C)CCCN1c2ccccc2CCc2ccccc21.Cl.Cl.O=C(O)C=CC(=O)O [imipramine HCl:fumaric acid cocrystal]

dissolution rate of the cocrystal as % of the rate of metronidazole [3]: about 22%
Structure (SMILES): Cc1ncc([N+](=O)[O-])n1CCO.O=C(O)c1cc(O)c(O)c(O)c1 [metronidazole:gallic acid cocrystal]
